The record followed here is patent US7989613B2, “Inhibition of metallo-β-lactamase by RNA” (priority 2005, dated 2011).

Data set [1] addresses T1, bovine carboxypeptidase A (Bos taurus, UniProt P00730).
T1 construct: purchased Sigma
T1 sequence (P00730 111-419): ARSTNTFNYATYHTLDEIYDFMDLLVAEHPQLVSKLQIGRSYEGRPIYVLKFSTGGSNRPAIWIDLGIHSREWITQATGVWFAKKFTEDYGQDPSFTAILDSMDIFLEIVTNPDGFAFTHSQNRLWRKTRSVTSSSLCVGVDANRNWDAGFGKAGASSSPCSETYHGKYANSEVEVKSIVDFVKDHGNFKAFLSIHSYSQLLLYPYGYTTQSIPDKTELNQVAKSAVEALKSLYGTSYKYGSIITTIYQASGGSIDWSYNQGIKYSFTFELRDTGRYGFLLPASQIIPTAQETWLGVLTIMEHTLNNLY
Briefly: Inhibition of carboxypeptidase A (hydrolysis of hippuryl-L-phenylalanine, 254 nm). The format is biochemical. The settings on record: 250 nM of the 30-mer (23×IC50), 1 mM hippuryl-L-phenylalanine, 0.05 M Tris-HCl pH 7.5, 0.5 M NaCl. How it is done: Assay of bovine carboxypeptidase A. The assay of bovine carboxypeptidase A is based on the method of Folk and Schirmer (1963). The rate of hydrolysis of hippuryl-L-phenylalanine is determined by monitoring the increase in absorbance at 254 nm (25° C., pH 7.5). The enzyme was dissolved in 10% lithium chloride to a concentration of 1-3 units per mL. Hippuryl-L-phenylalanine (0.001 M) was dissolved in 0.05 M Tris-HCl, pH 7.5, with 0.5 M sodium chloride. In a 1-cm pathlength cuvette, 1.0 mL of substrate was added and incubated in the spectrophotometer at 25° C. for 3-4 minutes to reach temperature equilibration and to establish blank rate. 50 μL of diluted enzyme was added to record the increase in AbS254.
In addition, the zinc dependent bovine carboxypeptidase A was used to test the specificity of inhibition by this 30-mer. […] The concentration of the substrate (hippuryl-L-phenylalanine) was 1 mM in the buffer (0.05 M Tris-HCl, pH 7.5, with 0.5 M sodium chloride).

Data set [2] addresses B. cereus 569/H/9 β-lactamase I (Bacillus cereus, UniProt P00809). The settings on record: 250 nM of the 30-mer (23×IC50); 1.1 mM benzylpenicillin, 50 mM MOPS pH 7.0; listed as 30-mer. The procedure:
The β-lactamase I activity assays used was modified from Davies et al. (1974), which described a general method of β-lactamase I activity assays. Briefly, the enzyme was incubated with 20 mM EDTA (pH 7.0) for 15 min. at room temperature prior to the assay. The enzymatic hydrolysis of 1.1 mM benzylpenicillin in […] MOPS (pH 7.0) and 1 mM EDTA was continuously monitored at 231 nm at 30° C. in a 1-cm pathlength quartz cell in a total volume of 1 mL. One unit of β-lactamase activity was generally defined as the amount of enzyme required to hydrolyze about one μmole of substrate/min. at 30° C. at pH 7.0.
An experiment was performed to test the specificity of inhibition of the 30-mer (Seq ID No.:6). The inhibition of B. cereus 569/H/9 β-lactamase I (Seq ID No.:7) was tested using various concentrations of the 30-mer RNA. The concentration of the substrate (benzylpenicillin) was 1.1 mM in the buffer (50 mM MOPS (pH 7.0)/1 […] EDTA).

Data set [3] deals with B. cereus 5/B/6 metallo-β-lactamase (Bacillus cereus, UniProt P14488). The settings on record: for IC50: […] cephalosporin C; for Ki: steady-state kinetics. How it is done:
Assay of the purified B. cereus 5/B/6 metallo-β-lactamase and B. cereus 569/H/9 β-lactamase I. Metallo-β-lactamase activity assays using cephalosporin C as substrate were determined as previously reported (Myers and Shaw, 1989). The cephalosporin C absorbance maximum at 260 nm was monitored as a function of time (Davies et al., 1974). One unit of activity is generally defined as the amount of enzyme required to catalyze the hydrolysis of about 1 μmol of β-lactam substrate (cephalosporin C) per minute at 30° C. at pH 7.0. […] The assays were carried out at 30° C. in a 0.1 cm path length quartz cell and the total assay volume was 250 μL.
Reversible inhibition studies for metallo-β-lactamase. To test for reversible inhibition, metallo-β-lactamase was incubated with various concentrations of the possible inhibitors in 50 mM MOPS buffer, pH 7.0. The enzyme activity remaining was determined (Myers and Shaw, 1989).
Various assays were conducted with the 30-mer RNA in the presence of metallo-β-lactamase to determine its inhibition values (IC50, Ki, and Ki′). The 30-mer RNA was tested for inhibition of β-lactamase I and bovine carboxypeptidase A. The 30-mer RNA was also tested for inhibition of metallo-β-lactamase in the presence of Zn^2+.
30-mer RNA. The IC50 value for the 30-mer RNA was determined by measuring the rate of enzymatic hydrolysis of cephalosporin C with different amounts of the 30-mer RNA.

Entries after “also recorded” stand apart in the source; their conditions may differ. Where two headings read alike, the source gives them in different places.

B. cereus 5/B/6 metallo-β-lactamase, sequence (P14488 29-256, looked up, natural form): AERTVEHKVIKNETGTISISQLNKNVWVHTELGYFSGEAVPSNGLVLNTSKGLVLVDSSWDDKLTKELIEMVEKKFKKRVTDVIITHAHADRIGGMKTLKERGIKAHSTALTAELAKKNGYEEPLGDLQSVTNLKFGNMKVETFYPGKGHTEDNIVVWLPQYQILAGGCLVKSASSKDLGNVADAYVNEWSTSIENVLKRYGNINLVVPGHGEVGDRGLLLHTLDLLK
B. cereus 569/H/9 β-lactamase I, sequence (P00809 28-306): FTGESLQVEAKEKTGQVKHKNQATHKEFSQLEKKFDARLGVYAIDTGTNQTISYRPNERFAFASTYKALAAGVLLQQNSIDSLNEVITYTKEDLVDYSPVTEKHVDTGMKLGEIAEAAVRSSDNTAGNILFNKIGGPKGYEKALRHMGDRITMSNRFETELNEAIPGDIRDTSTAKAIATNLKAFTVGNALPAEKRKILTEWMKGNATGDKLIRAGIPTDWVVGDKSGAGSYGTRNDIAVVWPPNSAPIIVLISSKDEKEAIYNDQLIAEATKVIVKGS

For “5′-UGGCUGCAGGGUCUGGCCCCCCGUUUGGUG-3′ (UGGCUGCAGGGUCUGGCCCCCCGUUUGGUG; chemistry not given here) [30-mer RNA]”, the “effect on the activity of carboxypeptidase A” value in data set [1] is recorded as “lack of inhibition; also recorded: do not show inhibition”; in data set [1] (listed as 30-mer) it was “no effect”. Further, in data set [2], the “effect on the activity of B. cereus 569/H/9 β-lactamase I” value is “no effect”. The IC50 turned out to be 19300 nM in data set [3] (read-out: IC50 for B. cereus 5/B/6 metallo-β-lactamase in the presence of Zn2+ ions, 50 mM MOPS and 1 mM ZnSO4, pH 7.0); 11 nM in data set [3] (read-out: IC50 for B. cereus 5/B/6 metallo-β-lactamase, 50 mM MOPS pH 7.0, no added Zn2+). Also, the Ki in data set [3] (read-out: Ki (dissociation constant for the inhibitor from the enzyme-inhibitor complex), slope replot) was 2 nM; in data set [3] (read-out: Ki′ (dissociation constant for the inhibitor from the enzyme-substrate-inhibitor complex), intercept replot), 15 nM. The “IC50 / inhibition of metallo-β-lactamase, range in words” value in data set [3] (stated in words) is “nanomolar range”. In addition, the type of inhibition result in data set [3] (steady-state kinetic study, Lineweaver-Burk plot) is “noncompetitive inhibition”.
